Measured values published in ChEMBL document CHEMBL1201862, “PubChem BioAssay data set” (2004).
Active and inactive are the calls of the source.

Assays:
[1] = molecular target: Alkaline phosphatase, placental type (Homo sapiens, UniProt P05187); experiment: PLAP enzyme inhibitors, confirmation, biochemical, luminescence (AID 1512); type: functional
[2] = molecular target: T1, Tyrosine-protein phosphatase non-receptor type 7 (Homo sapiens, UniProt P35236); experiment: SAR analysis of chemical inhibitors of HePTP using a Fluorescent assay - Set 2. [Related pubchem assays (depositor defined):AID1059, AID1077, AID1661, AID2085, AID521]; type: functional
T1 sequence (P35236 whole entry): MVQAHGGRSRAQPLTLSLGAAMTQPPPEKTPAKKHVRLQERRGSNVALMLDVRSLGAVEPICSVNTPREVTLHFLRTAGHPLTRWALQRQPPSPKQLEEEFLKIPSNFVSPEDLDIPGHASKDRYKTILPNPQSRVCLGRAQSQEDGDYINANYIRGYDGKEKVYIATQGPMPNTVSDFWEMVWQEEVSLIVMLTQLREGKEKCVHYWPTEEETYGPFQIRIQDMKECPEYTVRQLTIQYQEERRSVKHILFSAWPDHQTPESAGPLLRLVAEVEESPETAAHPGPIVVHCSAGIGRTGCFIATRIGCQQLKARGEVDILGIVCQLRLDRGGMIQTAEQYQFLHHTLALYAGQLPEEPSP

[3] = molecular target: T2, Dual specificity protein phosphatase 3 (Homo sapiens, UniProt P51452); experiment: SAR VHR1 Fluorescent Assay for In Vitro dose response studies Set 2. [Related pubchem assays (depositor defined):AID1654, AID1661, AID1878]; type: functional
T2 sequence (P51452 whole entry): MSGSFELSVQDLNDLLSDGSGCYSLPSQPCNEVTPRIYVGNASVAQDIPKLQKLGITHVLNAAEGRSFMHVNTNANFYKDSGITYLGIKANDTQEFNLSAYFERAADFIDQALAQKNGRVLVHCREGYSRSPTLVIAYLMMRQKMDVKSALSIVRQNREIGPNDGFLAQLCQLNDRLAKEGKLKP

[4] = molecular target: T3, Eukaryotic translation initiation factor 2-alpha kinase 3 (Homo sapiens, UniProt Q9NZJ5); experiment: Dose response cell-based high-throughput screening assay to measure PERK inhibition. [Related pubchem assays: 1416 ]; type: functional
T3 sequence (Q9NZJ5 whole entry): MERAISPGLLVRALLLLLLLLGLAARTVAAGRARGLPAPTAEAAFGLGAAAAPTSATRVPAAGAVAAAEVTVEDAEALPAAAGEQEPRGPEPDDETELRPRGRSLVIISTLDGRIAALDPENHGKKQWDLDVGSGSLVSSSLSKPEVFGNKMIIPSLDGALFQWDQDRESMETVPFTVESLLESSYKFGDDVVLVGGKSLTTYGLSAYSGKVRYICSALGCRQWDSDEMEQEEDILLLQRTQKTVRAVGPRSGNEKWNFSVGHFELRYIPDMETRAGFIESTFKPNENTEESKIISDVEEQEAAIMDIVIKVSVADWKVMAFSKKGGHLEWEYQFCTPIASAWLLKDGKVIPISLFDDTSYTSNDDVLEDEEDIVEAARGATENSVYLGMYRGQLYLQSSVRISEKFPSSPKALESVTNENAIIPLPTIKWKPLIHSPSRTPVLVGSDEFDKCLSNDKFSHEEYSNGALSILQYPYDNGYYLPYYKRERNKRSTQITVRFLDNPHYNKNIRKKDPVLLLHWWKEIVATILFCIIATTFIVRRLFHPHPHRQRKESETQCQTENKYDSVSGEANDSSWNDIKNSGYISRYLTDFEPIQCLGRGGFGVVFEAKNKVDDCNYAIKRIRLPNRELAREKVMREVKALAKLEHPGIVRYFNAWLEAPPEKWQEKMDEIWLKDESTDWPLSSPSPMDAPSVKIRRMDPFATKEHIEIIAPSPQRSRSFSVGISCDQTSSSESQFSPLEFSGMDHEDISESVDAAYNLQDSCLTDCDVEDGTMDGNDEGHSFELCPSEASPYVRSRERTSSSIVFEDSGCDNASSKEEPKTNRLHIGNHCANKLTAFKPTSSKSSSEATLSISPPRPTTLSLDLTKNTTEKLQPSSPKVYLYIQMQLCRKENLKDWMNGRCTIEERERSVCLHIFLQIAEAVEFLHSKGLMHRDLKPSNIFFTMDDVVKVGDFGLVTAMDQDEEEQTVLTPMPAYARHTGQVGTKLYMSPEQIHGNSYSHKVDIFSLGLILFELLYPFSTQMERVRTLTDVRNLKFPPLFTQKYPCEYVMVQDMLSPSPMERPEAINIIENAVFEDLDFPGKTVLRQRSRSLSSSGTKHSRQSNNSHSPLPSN

[5] = molecular target: Luciferin 4-monooxygenase (Photinus pyralis, UniProt P08659); experiment: firefly luciferase enzyme inhibitors, dose response, biochemical, luminescence (AID 1891)
Luciferin 4-monooxygenase, sequence (P08659 whole entry): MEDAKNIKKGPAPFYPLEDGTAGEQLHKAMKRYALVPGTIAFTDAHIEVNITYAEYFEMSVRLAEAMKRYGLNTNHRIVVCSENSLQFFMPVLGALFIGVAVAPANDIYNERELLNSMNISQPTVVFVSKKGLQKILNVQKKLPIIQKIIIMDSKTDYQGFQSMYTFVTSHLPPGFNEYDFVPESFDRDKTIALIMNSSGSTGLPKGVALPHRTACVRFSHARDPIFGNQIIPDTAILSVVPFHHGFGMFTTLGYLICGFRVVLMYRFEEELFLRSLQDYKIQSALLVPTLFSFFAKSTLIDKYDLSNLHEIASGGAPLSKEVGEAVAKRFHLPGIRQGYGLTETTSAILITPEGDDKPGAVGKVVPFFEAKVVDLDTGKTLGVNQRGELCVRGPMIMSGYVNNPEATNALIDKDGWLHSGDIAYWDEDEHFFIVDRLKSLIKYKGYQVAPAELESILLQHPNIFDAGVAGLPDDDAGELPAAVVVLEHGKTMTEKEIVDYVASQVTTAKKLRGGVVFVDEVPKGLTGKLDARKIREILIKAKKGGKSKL

[6] = Luminescence Cell-Based Dose Confirmation HTS to Identify Inhibitors of Platelet Dense Granule Release. [Related pubchem assays: 1663 (Primary HTS), 1678 (Summary of Project)]; type: functional
[7] = molecular target: T3, Eukaryotic translation initiation factor 2-alpha kinase 3; experiment: Counterscreen assay for PERK inhibitors: Dose response cell-based high throughput screening assay to measure inhibition of PERK at 6 hours. [Related pubchem assays: 1522, 1416 ]; type: functional
[8] = Counterscreen for IDE inhibitors: Luminescence-based cell-based high throughput dose response assay to identify compounds that are cytotoxic to HEK cells. [Related pubchem assays: 434962 (Primary screen (IDE inhibitors in singlicate)), 449730 (Counterscreen (Cytotoxicity in triplicate)), 435028 (Confirmation (IDE inhibitors in triplicate)) …; type: functional; conditions: HEK293
[9] = molecular target: Insulin-degrading enzyme (Homo sapiens, UniProt P14735); experiment: Dose Response: Fluorescence polarization-based cell-based high throughput dose response assay for inhibitors of insulin-degrading enzyme (IDE). [Related pubchem assays: 434962 (Primary screen (IDE inhibitors in singlicate)), 449730 (Counterscreen (Cytotoxicity in triplicate)), 435028 (Confirmation (IDE inhibitors in triplicate)), 434984 (Summary …; type: functional
Insulin-degrading enzyme, sequence (P14735 whole entry): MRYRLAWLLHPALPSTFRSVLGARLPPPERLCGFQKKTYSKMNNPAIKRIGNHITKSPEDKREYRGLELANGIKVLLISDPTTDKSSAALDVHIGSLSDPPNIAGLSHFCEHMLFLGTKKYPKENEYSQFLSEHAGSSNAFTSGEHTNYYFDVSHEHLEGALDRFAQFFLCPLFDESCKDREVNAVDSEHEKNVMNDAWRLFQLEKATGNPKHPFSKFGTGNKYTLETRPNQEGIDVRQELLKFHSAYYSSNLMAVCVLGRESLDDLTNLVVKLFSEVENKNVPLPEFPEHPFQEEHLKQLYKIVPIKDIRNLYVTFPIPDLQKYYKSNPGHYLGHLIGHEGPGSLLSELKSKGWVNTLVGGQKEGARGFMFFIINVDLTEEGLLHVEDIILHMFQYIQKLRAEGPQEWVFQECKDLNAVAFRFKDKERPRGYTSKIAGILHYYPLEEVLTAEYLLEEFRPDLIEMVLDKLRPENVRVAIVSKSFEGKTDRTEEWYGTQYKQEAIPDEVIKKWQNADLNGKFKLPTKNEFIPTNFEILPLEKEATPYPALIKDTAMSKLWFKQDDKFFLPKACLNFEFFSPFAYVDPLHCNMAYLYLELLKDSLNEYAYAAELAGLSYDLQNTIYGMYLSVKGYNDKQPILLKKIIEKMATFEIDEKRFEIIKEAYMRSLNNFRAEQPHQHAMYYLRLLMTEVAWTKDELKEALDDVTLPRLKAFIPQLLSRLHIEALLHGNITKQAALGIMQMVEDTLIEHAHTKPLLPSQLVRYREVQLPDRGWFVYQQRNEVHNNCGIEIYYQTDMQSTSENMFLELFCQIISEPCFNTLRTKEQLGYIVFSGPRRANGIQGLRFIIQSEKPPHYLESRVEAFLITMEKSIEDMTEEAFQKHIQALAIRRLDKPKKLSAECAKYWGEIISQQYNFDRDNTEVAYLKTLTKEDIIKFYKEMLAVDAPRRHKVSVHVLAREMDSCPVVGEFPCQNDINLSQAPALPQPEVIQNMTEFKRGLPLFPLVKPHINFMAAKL

[10] = molecular target: T2, Dual specificity protein phosphatase 3; experiment: VHR1 inhibitor Ki determination, SAR follow-up, biochemical, colorimetric (AID 2004)
[11] = molecular target: Neurotensin receptor type 1 (Homo sapiens, UniProt P30989); type: functional;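 also: Image-based confirmatory dose-response assay measuring agonist activity at NTR1; NTR1-expressing U2OS osteosarcoma cells imaged for beta-arrestin GFP spot formation; agonist potency where compounds increase beta-arrestin recruitment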
[12] = HEp-2 cell cytotoxicity, dose response, cytotoxicity control for RSV inhibitor project, HTS (AID 2410); type: functional; conditions: human respiratory syncytial virus
[13] = test system: Streptococcus sp. 'group A'; experiment: growth inhibition of control SK(-) GAS strain, dose response, counter-screen for streptokinase expression inhibitor project, luminescence, kanamycin, BacTiterGlo, confirmation (AID 1900); type: functional, organism-based
[14] = test system: Streptococcus; experiment: Group A Streptococcus viability loss, dose response, counter-screen for streptokinase expression inhibitor project, luminescence, BacTiterGlo (AID 1915); type: functional, organism-based;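 also: potency for reduction of bacterial viability or growth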
[15] = Luminescence Cell-Based Dose Retest to Confirm Inhibitors of Cancer Stem Cells. [Related pubchem assays (depositor defined):AID2717, AID2721]; type: functional; conditions: Homo sapiens
[16] = molecular target: X-box-binding protein 1 (Homo sapiens, UniProt P17861); type: functional, Cricetulus griseus;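 also: confirmatory dose-response counter-screen serving a CHOP assay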
[17] = molecular target: Potassium voltage-gated channel subfamily KQT member 2 (Rattus norvegicus, UniProt O88943); experiment: retigabine-insensitive KCNQ2 potentiators, concentration-response, dose response, cell-based, retigabine-insensitive compounds (AID 2654); type: functional
[18] = molecular target: Aspartyl aminopeptidase (Plasmodium falciparum 3D7, UniProt Q8I2J3)
Aspartyl aminopeptidase, sequence (Q8I2J3 whole entry): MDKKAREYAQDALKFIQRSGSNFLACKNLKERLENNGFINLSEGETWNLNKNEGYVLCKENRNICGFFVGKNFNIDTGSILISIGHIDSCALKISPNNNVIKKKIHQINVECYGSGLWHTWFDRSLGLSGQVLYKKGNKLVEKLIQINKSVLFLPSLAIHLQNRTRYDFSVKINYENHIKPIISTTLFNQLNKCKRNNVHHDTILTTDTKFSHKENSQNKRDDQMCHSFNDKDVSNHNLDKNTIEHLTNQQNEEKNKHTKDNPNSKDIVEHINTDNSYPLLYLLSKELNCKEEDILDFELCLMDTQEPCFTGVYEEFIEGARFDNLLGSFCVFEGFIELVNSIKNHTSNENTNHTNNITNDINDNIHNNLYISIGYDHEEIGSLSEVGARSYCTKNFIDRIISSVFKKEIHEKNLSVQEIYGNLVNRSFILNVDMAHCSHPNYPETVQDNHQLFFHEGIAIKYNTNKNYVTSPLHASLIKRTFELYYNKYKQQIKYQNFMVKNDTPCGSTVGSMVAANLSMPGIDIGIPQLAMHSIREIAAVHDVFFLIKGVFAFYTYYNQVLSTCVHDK

[19] = molecular target: Procathepsin L (Homo sapiens, UniProt P07711)
[20] = molecular target: T4, Mannose-6-phosphate isomerase (Homo sapiens, UniProt P34949); experiment: inhibitors of human PMI, primary screen, biochemical, fluorescence intensity, coupled assay (AID 1209)
T4 sequence (P34949 whole entry): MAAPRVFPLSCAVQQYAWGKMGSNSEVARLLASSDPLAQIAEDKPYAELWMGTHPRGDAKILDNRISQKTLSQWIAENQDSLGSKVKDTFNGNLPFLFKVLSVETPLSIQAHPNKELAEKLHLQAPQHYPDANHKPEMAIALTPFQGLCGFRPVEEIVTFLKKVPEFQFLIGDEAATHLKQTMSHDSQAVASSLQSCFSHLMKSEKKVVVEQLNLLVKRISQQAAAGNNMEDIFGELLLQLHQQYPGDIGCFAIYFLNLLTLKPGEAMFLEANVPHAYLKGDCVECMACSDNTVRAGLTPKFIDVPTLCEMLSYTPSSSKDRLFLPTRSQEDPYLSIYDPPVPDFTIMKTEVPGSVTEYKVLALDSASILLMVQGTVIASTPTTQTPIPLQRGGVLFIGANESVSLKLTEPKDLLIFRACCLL

[21] = molecular target: Glucose-6-phosphate 1-dehydrogenase (Homo sapiens, UniProt P11413); experiment: human G6PD enzyme inhibitors, dose response, selectivity assay for P. falciparum G6PD inhibitor project, biochemical, fluorescence (AID 504792); type: functional
Glucose-6-phosphate 1-dehydrogenase, sequence (P11413 whole entry): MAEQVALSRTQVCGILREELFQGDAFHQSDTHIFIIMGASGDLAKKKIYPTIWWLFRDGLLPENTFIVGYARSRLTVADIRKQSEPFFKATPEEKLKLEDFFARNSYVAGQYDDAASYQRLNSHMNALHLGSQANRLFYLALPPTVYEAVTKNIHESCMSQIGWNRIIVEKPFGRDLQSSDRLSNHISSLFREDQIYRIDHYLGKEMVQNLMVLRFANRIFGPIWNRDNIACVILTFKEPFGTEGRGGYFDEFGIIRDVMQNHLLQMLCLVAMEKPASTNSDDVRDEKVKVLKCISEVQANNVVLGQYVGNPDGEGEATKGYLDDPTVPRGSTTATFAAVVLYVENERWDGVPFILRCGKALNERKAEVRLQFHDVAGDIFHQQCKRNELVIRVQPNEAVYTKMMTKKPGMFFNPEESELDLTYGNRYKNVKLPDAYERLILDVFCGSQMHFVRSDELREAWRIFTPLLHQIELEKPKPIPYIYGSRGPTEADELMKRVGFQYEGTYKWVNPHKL

[22] = molecular target: Cytochrome P450 2C19 (Homo sapiens, UniProt P33261); experiment: qHTS Assay for Inhibitors and Substrates of Cytochrome P450 2C19. [Related pubchem assays: 410 ]; type: ADME; conditions: read-out: Potency
[23] = molecular target: Cytochrome P450 2C9 (Homo sapiens, UniProt P11712); conditions: Potency
[24] = molecular target: T5, Intestinal-type alkaline phosphatase (Homo sapiens, UniProt P09923); experiment: Dose Response confirmation of uHTS hits from a small molecule inhibitors of human intestinal alkaline phosphatase via a luminescent assay. [Related pubchem assays (depositor defined):AID2544, AID2574]; type: functional
T5 sequence (P09923 whole entry): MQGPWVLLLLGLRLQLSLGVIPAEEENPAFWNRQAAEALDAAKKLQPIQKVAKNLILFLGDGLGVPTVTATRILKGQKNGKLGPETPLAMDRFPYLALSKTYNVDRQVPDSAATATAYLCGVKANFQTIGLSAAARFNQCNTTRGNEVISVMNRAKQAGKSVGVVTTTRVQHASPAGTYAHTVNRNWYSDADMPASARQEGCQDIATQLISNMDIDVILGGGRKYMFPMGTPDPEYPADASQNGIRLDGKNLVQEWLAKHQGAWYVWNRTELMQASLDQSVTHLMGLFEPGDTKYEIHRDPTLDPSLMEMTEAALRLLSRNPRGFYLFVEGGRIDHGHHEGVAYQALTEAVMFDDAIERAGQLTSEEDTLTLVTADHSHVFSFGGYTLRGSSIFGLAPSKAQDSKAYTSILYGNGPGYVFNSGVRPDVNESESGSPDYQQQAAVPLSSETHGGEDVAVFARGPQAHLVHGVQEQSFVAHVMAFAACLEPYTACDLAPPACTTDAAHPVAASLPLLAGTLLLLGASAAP

[25] = molecular target: T5, Intestinal-type alkaline phosphatase; experiment: human intestinal alkaline phosphatase activators, dose response, biochemical, luminescence, uHTS hits (AID 463120); type: functional

Alkaline phosphatase, placental type, sequence (P05187 whole entry): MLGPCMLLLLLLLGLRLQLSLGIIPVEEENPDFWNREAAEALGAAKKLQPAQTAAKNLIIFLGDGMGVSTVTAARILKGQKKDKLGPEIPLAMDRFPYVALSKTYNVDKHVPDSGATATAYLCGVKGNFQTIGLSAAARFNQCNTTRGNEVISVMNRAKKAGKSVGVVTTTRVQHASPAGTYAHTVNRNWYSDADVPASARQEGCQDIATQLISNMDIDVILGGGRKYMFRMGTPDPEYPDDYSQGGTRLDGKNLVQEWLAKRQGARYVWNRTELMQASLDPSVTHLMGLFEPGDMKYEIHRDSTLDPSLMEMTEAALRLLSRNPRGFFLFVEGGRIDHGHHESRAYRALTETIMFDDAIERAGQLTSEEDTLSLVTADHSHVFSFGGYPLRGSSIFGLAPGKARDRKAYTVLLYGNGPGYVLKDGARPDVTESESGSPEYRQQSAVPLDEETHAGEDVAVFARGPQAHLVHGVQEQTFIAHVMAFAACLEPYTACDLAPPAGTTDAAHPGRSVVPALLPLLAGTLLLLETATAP

With `Cc1ccc(NC(=S)NNC(=O)c2ccccc2OC(F)F)cc1` the IC50 [1] was > 100 µM (inactive), the IC50 [2] was > 100 µM (inactive) and the IC50 [3] was > 100 µM (inactive).

With `COc1ccc(N=Nc2n(C)c3ccccc3[n+]2C)cc1` the EC50 [4] was > 55.7 µM (not active), the EC50 [5] was 631 nM (active) and the EC50 [6] was 738 nM (active). The EC50 [7] was > 55.7 µM (not active).

For `CCN(CC)c1ccc(C=C(c2nnnn2-c2ccccc2)c2nnnn2-c2ccccc2)cc1`, the IC50 [8] was > 55.7 µM (not active) and the IC50 [9] was > 55.9 µM (not active).

In the case of `COc1ccc(-c2cc(C(=O)NCCc3ccccc3)c3ccccc3n2)c(OC)c1`, the Ki [10] was 27.9 µM (inactive).

With `O=C1NC(=O)N(Cc2ccc(F)cc2)C(=O)/C1=C/c1cccs1` the EC50 [11] was 12.6 µM (active).

For `CCc1cc(-c2[nH]nc(C)c2Oc2ccc(C(C)C)cc2)c(O)cc1O`, the CC50 [12] was 15.9 µM (active), the EC50 [13] was 2.28 µM (active) and the EC50 [14] was 4.99 µM (active). For the same molecule, the AC50 [15] was 3.13 µM (active) and the “Absolute IC50 (XBP1)” value [16] was less than 10 µM.

For `O=C(Nc1ccc(Cl)cc1)Nc1cccnc1`, the EC50 [17] was 6.85 µM (active).

In the case of `CC1(C)CC2(CC(c3ccccc3F)c3ccc(O)c(O)c3O2)NC(=S)N1` (stereo not given), the IC50 [18] was 1.76 µM (active), the IC50 [19] was > 59.6 µM (not active) and the IC50 [20] was 39.9 µM (active). The IC50 [21] was > 80 µM (inactive).

With `CC(C)[C@@H](CC(=O)N[C@@H]1CCNC[C@H]1C(=O)N[C@H](CC(=O)N[C@@H](CCC(=O)O)CC(=O)O)Cc1ccccc1)NC(=O)C[C@H](CO)NC(=O)[C@@H]1CNCC[C@H]1N` the AC50 [22] was 39.8 µM (inconclusive) and the AC50 [23] was 25.1 µM (inconclusive).

In the case of `CC(=O)Nc1ccc(NC(=O)C2CC(=O)N(C(C)C)C2)cc1` (stereo not given), the IC50 [24] was > 100 µM (inactive) and the EC50 [25] was > 100 µM (inactive).
